Reference: patent US20230338391A1, “TREATMENT FOR DEPRESSION” (TAKEDA PHARMACEUTICAL COMPANY LIMITED, priority 2020, published 2023)
Read-outs that look alike come from different tables or passages of the source.

Assay: Phase 1 single-rising dose (SRD, Part 1) plasma PK in healthy subjects
Format: in vivo, human
Settings: for Vd/F / AUC(0-inf) / Cmax / Tmax / AUC(0-t): both sexes, human, plasma; for Tmax: po
Experimental: The study was designed to assess the safety, tolerability, PK, and PD of COMPOUND A. A total of 88 subjects were enrolled in 6 SRD and 5 SRD/MRD cohorts (n=8 per cohort). The study was composed of 2 parts.
In Part 1 of the study (SRD cohorts), a single oral tablet dose of COMPOUND A (0.3, 1, 3, 5, 9, or 18 mg) or matching placebo was administered on Day 1 followed by safety, tolerability, PK, and PD assessments. In each SRD cohort of 8 subjects (6 active: 2 placebo), sentinel dosing was used whereby 2 initial subjects (1 active: 1 placebo) were administered study drug to evaluate safety and tolerability before dosing in the remaining subjects (5 active: 1 placebo) after an interval of at least 24 hours. Dosing in the remaining 6 subjects from each cohort was staggered such that only 3 subjects were dosed in 1 day, with the last 3 subjects being dosed after an additional 24-hour interval. The data from each cohort were reviewed sequentially to ensure adequate safety and tolerability before administering the next dose level. Study drug was administered after an overnight fast of at least 10 hours. Subjects were confined in the study unit for 5 days, from Check-in on Day −1 until approximately 96 hours after dosing. Subjects in Cohorts 1 to 5 (0.3-9 mg) returned to the clinic on Days 6 and 7 and subjects in Cohort 6 (18 mg) returned on Days 6, 7 and 8 for additional PK blood sample collections. To allow for a preliminary assessment of the effect of food on the PK of COMPOUND A, subjects in SRD Cohort 3 (3 mg) returned to the clinic to receive study drug under fed conditions (standard high-fat meal, as defined by the Food and Drug Administration (“FDA”)), after the safety and tolerability of the higher dose (5 mg) under fasted conditions had been established.
For all cohorts in Parts 1 and 2, serial PK blood samples were collected pre- and post-dose on Day 1 to measure plasma concentrations of COMPOUND A and its metabolites. For all SRD/MRD cohorts in Part 2, urine samples were collected pre- and post-dose on Day 1 and post-dose on Day 18 to measure concentrations of COMPOUND A and its metabolites.
For Part 1 of the study, all 36 subjects who received COMPOUND A were included in the PK set. For Part 2 of the study, all 30 subjects who received COMPOUND A were included in the PK set.
Referring now to FIG. 2, mean plasma concentration-time profiles (linear and semilog scales) of COMPOUND A were determined following single oral administration of COMPOUND A.

[1] = single oral 0.3 mg, mean, N = 6

In the case of `CC1=CN2CCS(=O)(=O)N=C2C(c2ccc(OC3CCCCC3)cc2)=N1` [COMPOUND A, 9-[4-(Cyclohexyloxy)phenyl]-7-methyl-3,4-dihydropyrazino[2,1-c][1,2,4]thiadiazine 2,2-dioxide], the Vd/F (oral, range across single dose levels, read-out: mean Vz/F) is reported as 95.1 to 133 L, the AUC(0-inf) (oral, range across the 0.3 to 18 mg single dose range, read-out: mean AUC∞) is reported as 148 to 8880 ng·h/mL and the Cmax (oral, range across the 0.3 to 18 mg single dose range, read-out: mean plasma Cmax) is reported as 3.63 to 126 ng/mL. It also gave a Tmax (0.3 mg, single oral 0.3 mg, median, N = 6, read-out: tmax) of 1.25 h, a Tmax (1 mg, single oral 1 mg, median, N = 6, read-out: tmax) of 2.5 h and a Tmax (3 mg, single oral 3 mg, median, N = 6, read-out: tmax) of 1.75 h. For the same compound, the Tmax (5 mg, single oral 5 mg, median, N = 6, read-out: tmax) was 2.75 h, the Tmax (9 mg, single oral 9 mg, median, N = 6, read-out: tmax) was 5.5 h and the Tmax (18 mg, range across single oral doses 0.3, 1, 3, 5, 9, 18 mg, read-out: median tmax) was 1.25 to 5.5 h. The Tmax (18 mg, single oral 18 mg, median, N = 6, read-out: tmax) was 5.05 h, the AUC(0-t) [1] was 126 ng·h/mL and the AUC(0-inf) (single oral 0.3 mg, mean, N = 6, read-out: AUC∞) was 148 ng·h/mL. It also gave a Cmax (single oral 0.3 mg, mean, N = 6, read-out: Cmax) of 3.63 ng/mL, a Vd/F (single oral 0.3 mg, mean, N = 6, read-out: Vz/F) of 98.8 L and an AUC(0-t) (single oral 1 mg, mean, N = 6) of 565 ng·h/mL. The AUC(0-inf) (single oral 1 mg, mean, N = 6, read-out: AUC∞) was 642 ng·h/mL, the Cmax (single oral 1 mg, mean, N = 6, read-out: Cmax) was 10.3 ng/mL and the Vd/F (single oral 1 mg, mean, N = 6, read-out: Vz/F) was 95.1 L. For the same compound, the AUC(0-t) (single oral 3 mg, mean, N = 6) was 1340 ng·h/mL, the AUC(0-inf) (single oral 3 mg, mean, N = 6, read-out: AUC∞) was 1460 ng·h/mL and the Cmax (single oral 3 mg, mean, N = 6, read-out: Cmax) was 27.1 ng/mL. The Vd/F (single oral 3 mg, mean, N = 6, read-out: Vz/F) was 114 L, the AUC(0-t) (single oral 5 mg, mean, N = 6) was 2320 ng·h/mL and the AUC(0-inf) (single oral 5 mg, mean, N = 6, read-out: AUC∞) was 2650 ng·h/mL. For the same compound, the Cmax (single oral 5 mg, mean, N = 6, read-out: Cmax) was 45.3 ng/mL, the Vd/F (single oral 5 mg, mean, N = 6, read-out: Vz/F) was 115 L and the AUC(0-t) (single oral 9 mg, mean, N = 6) was 4490 ng·h/mL. For the same compound, the AUC(0-inf) (single oral 9 mg, mean, N = 6, read-out: AUC∞) was 5380 ng·h/mL, the Cmax (single oral 9 mg, mean, N = 6, read-out: Cmax) was 69.5 ng/mL and the Vd/F (single oral 9 mg, mean, N = 6, read-out: Vz/F) was 120 L. For the same compound, the AUC(0-t) (single oral 18 mg, mean, N = 6) was 8080 ng·h/mL, the AUC(0-inf) (single oral 18 mg, mean, N = 6, read-out: AUC∞) was 8880 ng·h/mL and the Cmax (single oral 18 mg, mean, N = 6, read-out: Cmax) was 126 ng/mL. For the same compound, the Vd/F (single oral 18 mg, mean, N = 6, read-out: Vz/F) was 133 L, the CL/F [1] was 2.17 L/h and the t1/2z [1] was 33.1 h. The CL/F (single oral 1 mg, mean, N = 6) was 1.79 L/h, the t1/2z (single oral 1 mg, mean, N = 6) was 41.3 h and the CL/F (single oral 3 mg, mean, N = 6) was 2.18 L/h. The t1/2z (single oral 3 mg, mean, N = 6) was 37.9 h, the CL/F (single oral 5 mg, mean, N = 6) was 2.08 L/h and the t1/2z (single oral 5 mg, mean, N = 6) was 42.5 h. For the same compound, the CL/F (single oral 9 mg, mean, N = 6) was 1.98 L/h, the t1/2z (single oral 9 mg, mean, N = 6) was 47.8 h and the CL/F (single oral 18 mg, mean, N = 6) was 2.29 L/h. For the same compound, the t1/2z (single oral 18 mg, mean, N = 6) was 44.1 h.
